Measured values taken from patent US10251874B2, “Crystalline forms of a JAK inhibitor compound” (THERAVANCE BIOPHARMA R&D IP, LLC, priority 2017, dated 2019).

Columns and labels:
[1] = tested on: IL-27 induced CXCL9 secretion in EpiAirway tissue cultures; assay: Assay 15: IL-27 induced CXCL9 in human 3D airway cultures; format: cell-based; conditions: 192 h, Day 8, average from 3 or 4 donors, read-out: % inhibition of IL-27 induced CXCL9 secretion (±STDV)
Method: (§1) EpiAirway tissue cultures were obtained from Mattek (AIR-100). Cultures were derived from asthmatic donors. In a cell culture insert, human derived tracheal/bronchial epithelial cells were grown and differentiated on a porous membrane support, allowing an air-liquid interface with warmed culture medium below the cells and a gaseous test atmosphere above. Tissues were cultured in maintenance media (Mattek, AIR-100-MM) in a 37° C., 5% CO2 humidified incubator. Four donors were tested. On Day 0, tissue cultures were treated with test compounds at 10 μM, 1 μM and/or 0.1 μM. Compounds were diluted in dimethyl sulfoxide (DMSO, Sigma) to a final concentration of 0.1%. DMSO at 0.1% was used as a vehicle control. Test compounds were incubated with cultures for 1 hour at 37° C., 5% CO2, followed by the addition of pre-warmed media containing IFNγ (R&D Systems) or IL-27 (R&D Systems) at a final concentration at 100 ng/ml. Tissue cultures were maintained for 8 days. Media was replaced every 2 days with fresh media containing compounds and IFNγ or IL-27. On Day 8, tissue cultures and supernatants were collected for analysis. Supernatant samples were assayed for CXCL10 (IP-10) and CXCL9 (MIG) using luminex analysis (EMD Millipore). Data is expressed as % Inhibition +/−standard deviation (±STDV). Percent inhibition was determined by compound inhibitory potency against IFNγ or IL-27 induced CXCL10 or CXCL9 secretion compared to vehicle treated cells. Data is the average from 3 or 4 donors. Compound 1 was able to inhibit IFNγ induced CXCL10 secretion by 99%±2.0 (at 10 μM), 71%±19 (at […]) and 17%±12 (at 0.1 μM) when compared to vehicle control. Compound 1 was able to inhibit IFNγ induced CXCL9 secretion by 100%±0.3 (at 10 μM), 99%±0.9 (at 1 μM) and 74%±17 (at 0.1 μM) when compared to vehicle. […] Compound 1 was able to inhibit IL-27 induced CXCL9 secretion by 100%±0 (at 10 μM), 95%±3.7 (at 1 μM) and 75%±3.5 (at 0.1 μM) when compared to vehicle control.

[2] = tested on: IL-6 induced pSTAT3 in retina/choroid; assay: Assay 13: Pharmacodynamic assay: inhibition of IL6-induced pSTAT3 in rats; format: in vivo, Lewis rats; conditions: rat, IVT suspension of crystalline compound 1 of Example 2, 15 μg dose, 3 day pre-treatment
Method: The ability of a single intravitreal administration of test compound to inhibit IL-6 induced pSTAT3 was measured in rat retina/choroid homogenates.
Suspension formulations were prepared by combining crystalline compound 1 of Example 2 with 0.5% hydroxypropyl methylcellulose (HPMC E5 LV), 0.02% Tween 80, and 0.9% sodium chloride in purified water to attain target concentrations of 3 mg/mL and 10 mg/mL.
Female Lewis rats were intravitreally (IVT) dosed (5 μL per eye) with the suspension formulations or with the drug vehicle. Three days later, IL-6 (Peprotech; 0.1 mg/mL; 5 μL per eye) or vehicle was intravitreally administered to induce pSTAT3.
Ocular tissues were dissected one hour after the second IVT injection with IL-6. The retina/choroid tissues were homogenized and pSTAT3 levels were measured using an ELISA (Cell Signaling Technology). The percent inhibition of IL-6-induced pSTAT3 was calculated in comparison to the vehicle/vehicle and vehicle/IL-6 groups. Inhibition of greater than 100% reflects a reduction of pSTAT3 levels to below those observed in the vehicle/vehicle group.

[3] = tested on: IL-4 stimulated pSTAT6 in CD3+ T cells; assay: Assay 5: Inhibition of IL-4 stimulated pSTAT6 in CD3+ T cells; format: cell-based; conditions: T-cell; CD3+ T cells in human PBMCs, flow cytometry; read-out: pIC50, inhibition of IL-4 stimulated pSTAT6 (converted)
Method: The potency of the test compound for inhibition of interleukin-4 (IL-4) stimulated STAT6 phosphorylation was measured in CD3-positive (CD3+) T cells in human peripheral blood mononuclear cells (PBMCs) isolated from human whole blood (Stanford Blood Center) using flow cytometry. Because IL-4 signals through JAK, this assay provides a measure of JAK cellular potency.
CD3+ T cells were identified using a […] (PE) conjugated anti-CD3 antibody (Clone UCHT1, BD Biosciences), while an Alexa Fluor 647 conjugated anti-pSTAT6 antibody (pY641, Clone 18/P, BD Biosciences) was used to detect STAT6 phosphorylation.
Human peripheral blood mononuclear cells (PBMC) were isolated from human whole blood of healthy donors as in Assays 3 and 4. […] After incubation, cells were washed twice in FACS buffer before being analyzed using a LSRII flow cytometer (BD Biosciences).
To determine the inhibitory potency of the test compound in response to IL-4, the median fluorescent intensity (MFI) of pSTAT6 was measured in CD3+ T cells. IC50 values were determined from analysis of the inhibition curves of MFI vs compound concentration. Data are expressed as pIC50 (negative decadic logarithm IC50).

[4] = tested on: IFNγ induced CXCL10 secretion in EpiAirway tissue cultures; assay: Assay 15: IFNγ induced CXCL10 in human 3D airway cultures; format: cell-based; conditions: 192 h, Day 8, average from 3 or 4 donors, read-out: % inhibition of IFNγ induced CXCL10 secretion (±STDV)
Method: EpiAirway tissue cultures were obtained from Mattek (AIR-100). Cultures were derived from asthmatic donors. In a cell culture insert, human derived tracheal/bronchial epithelial cells were grown and differentiated on a porous membrane support, allowing an air-liquid interface with warmed culture medium below the cells and a gaseous test atmosphere above. Tissues were cultured in maintenance media (Mattek, AIR-100-MM) in a 37° C., 5% CO2 humidified incubator. Four donors were tested. On Day 0, tissue cultures were treated with test compounds at 10 μM, 1 μM and/or 0.1 μM. Compounds were diluted in dimethyl sulfoxide (DMSO, Sigma) to a final concentration of 0.1%. DMSO at 0.1% was used as a vehicle control. Test compounds were incubated with cultures for 1 hour at 37° C., 5% CO2, followed by the addition of pre-warmed media containing IFNγ (R&D Systems) or IL-27 (R&D Systems) at a final concentration at 100 ng/ml. Tissue cultures were maintained for 8 days. Media was replaced every 2 days with fresh media containing compounds and IFNγ or IL-27. On Day 8, tissue cultures and supernatants were collected for analysis. […] Data is expressed as % Inhibition +/−standard deviation (±STDV). Percent inhibition was determined by compound inhibitory potency against IFNγ or IL-27 induced CXCL10 or CXCL9 secretion compared to vehicle treated cells. […]

[5] = tested on: IFNγ induced CXCL9 secretion in EpiAirway tissue cultures; assay: Assay 15: IFNγ induced CXCL9 in human 3D airway cultures; format: cell-based; conditions: 192 h, Day 8, average from 3 or 4 donors, read-out: % inhibition of IFNγ induced CXCL9 secretion (±STDV)
Method: as §1

CCc1cc(O)c(F)cc1-c1ccc2c(-c3nc4c([nH]3)CCN(C3CCN(C)CC3)C4)n[nH]c2c1 [Compound 1, 5-ethyl-2-fluoro-4-(3-(5-(1-methylpiperidin-4-yl)-4,5,6,7-tetrahydro-1H-imidazo[4,5-c]pyridin-2-yl)-1H-indazol-6-yl)phenol]
inhibition at 0.1 µM ([1]; at 0.1 μM): 75%
inhibition at 1 µM ([1]; at 1 μM): 95%
inhibition at 10 µM ([1]; at 10 μM): 100%
inhibition of IL-6-induced pSTAT3 in retina/choroid tissues [2]: 33%
IC50 [3]: 7.94 nM
inhibition at 0.1 µM ([4]; at 0.1 μM): 17%
inhibition at 10 µM ([4]; at 10 μM): 99%
inhibition at 0.1 µM ([5]; at 0.1 μM): 74%
inhibition at 1 µM ([5]; at 1 μM): 99%
inhibition at 10 µM ([5]; at 10 μM): 100%
